# Test results reported in a melting point compilation (Tetko et al.; mined from patent text by program, amines drawn as free bases though some values may be those of a salt).
row,SMILES,melting point
1,C=CCN(CC=C)S(=O)(=O)c1ccc([N+](=O)[O-])cc1[N+](=O)[O-],105 to 106 °C
2,COC(=O)CCc1cc2nc(C(F)(F)F)ccc2n1S(=O)(=O)c1ccccc1,119 °C
3,NS(=O)(=O)c1ccc(-n2nc(C(F)(F)F)cc2-c2ccc(-c3cocn3)cc2)cc1,170 to 172 °C
4,CCn1c(=O)c2c(nc(/C=C/c3ccc(OC(=O)c4ccccc4)cc3)n2C)n(CC)c1=O,208 to 209 °C
5,CSc1ccc(-n2cnc3ccc(-c4nnc(CC(F)(F)F)o4)cc32)cc1,190 to 192 °C
6,CCOC(=O)CCCN1CCC[C@H](NCc2ccccc2OC)[C@@H]1c1ccccc1 (relative stereo),75 to 90 °C
7,CN(C(=O)Cc1ccccc1)c1cccc(-c2ccc(CC3SC(=O)NC3=O)cc2)c1 (stereo not drawn),138 °C
8,Cc1noc2nc(-c3ccccc3)cc(Cl)c12,130 to 131 °C
9,Cc1nc[nH]c1CSCCNC(=C[N+](=O)[O-])NCCSCc1nccs1,119 to 120 °C
10,COc1nc(Br)cnc1NS(=O)(=O)c1cccc2c(NC(=O)OCc3ccccc3)cccc12,226 to 228 °C
11,CCN(CC)c1ccc(C(c2ccc(N(C)C)cc2)c2ccc(N(C)C)cc2)c(OC(=O)Nc2ccccc2)c1,145 to 146 °C
12,CCOC(=O)c1nc2c(C)nn(CC)c2nc1OCCC(C)C,59 to 61 °C
13,COC(=O)Cc1ccc(-c2cc(O)c3ccccc3c2O)n1C,200 to 201 °C
14,COC(=O)C1=C(C)NC(C)=C(C(=O)OCCN2CCN(c3ccccc3OC)CC2)C1c1cccc([N+](=O)[O-])c1 (stereo not drawn),58 °C
15,COC(=O)CCCc1cc2nc(C(F)(F)F)ccc2n1S(=O)(=O)c1ccc(Cl)cc1,97 °C
16,C=CC(O)CCCC(O)CCCC1(C)OCCO1 (stereo not drawn),52 to 54 °C
17,CN1C(=O)CN2CC(CCl)OC2(c2ccccc2)c2cc(Cl)ccc21 (stereo not drawn),140 to 142 °C
18,C[Si](C)(C)CC(CN)CC(=O)O (stereo not drawn),167 to 168 °C
19,CC1CN(c2cc3ccccc3c(=O)[nH]2)CC(C)N1 (stereo not drawn),208 to 210 °C
20,C=C(c1cc(C(C)(C)C)cc2c1CCC2(C)C)c1sccc1C(=O)O,148 to 150 °C
21,NCc1ccc(C2CCN(c3nc4c(cc3F)c(=O)c(C(=O)O)cn4C3CC3)C2)cc1 (stereo not drawn),268 to 272 °C
22,CC1CCCN1CCCN1C(=C(C#N)C#N)N(CCN2CCCCC2)c2ccccc21 (stereo not drawn),85 to 86 °C
23,CCOC(=O)C(=O)c1csc(NC(=O)Nc2ccc(Cl)cc2)n1,230 to 234 °C
24,O=C(O)c1coc(Cl)c1,124 to 125 °C
25,CS(=O)(=O)c1ccc(-c2cnn(Cc3ccncc3)c(=O)c2-c2ccc(F)cc2)cc1,153 to 156 °C
26,COC(=O)C1CCc2oc3cc(OC)ccc3c2C1=O (stereo not drawn),173 to 175 °C

row,SMILES,melting point
1,CSc1nc(O)c2c(n1)CCCS2,248 °C
2,CCOc1ccc2c(c1)C(N)(c1ccccc1Cl)C(=O)N2Cc1ccc(C(=O)NC(C)(C)CN(CC)CC)cc1 (stereo not drawn),59 °C
3,CNC(=O)COc1cc(-n2c(=O)cc(C(F)(F)F)n(C)c2=O)c(F)cc1Cl,190 to 192 °C
4,COc1ccc2c(cc3n2CCc2ccccc2-3)n1,179 to 180 °C
5,CCOC(=O)COc1c(C=O)cccc1OC,75.1 to 76.2 °C
6,O=[N+]([O-])c1c(CO)cccc1CO,100 to 101 °C
7,CCn1ncnc1COc1nn2c(-c3ccc(F)cc3)nncc2c1C(C)(C)C,190 °C
8,CCOC(=O)CCCCn1c(C(=O)OCC)cc2c(Cl)cc(O)cc21,74 to 76 °C
9,O=C(Cl)c1ccc(Cl)c(S(=O)(=O)NC2CCCCC2)c1,119 °C
10,Cc1cc(OS(=O)(=O)C(F)(F)F)ccc1S(C)(=O)=O,51 °C
11,CC(C)=CCN1c2ccccc2NC(=O)C1C (racemic),92 to 93 °C
12,NCC1CC(n2cc(-c3cccc(F)c3)c3c(N)ncnc32)C1 (stereo not drawn),101 to 102 °C
13,CSCOc1cc(Cl)ccc1C=O,67 to 68 °C
14,CC(=O)Oc1cc2c(c3ccccc13)N(C(=O)OC(C)OC(C)=O)c1ccccc1S2 (stereo not drawn),76 to 78 °C
15,COC(=O)NC(C)=NS(=O)(=O)NC(C)C,193 to 196 °C
16,Cc1nc2c(n1C)C(=O)c1ccccc1C2=O,> 253 °C
17,Cc1nn(-c2cc(F)c(C#N)cc2F)c(C)c1Cl,153 °C
18,Nc1ccc(Nc2c(NCc3ccco3)cc(C(=O)O)cc2S(N)(=O)=O)cc1,232 °C
19,Cn1ncnc1COc1nn2c(-c3cc(F)ccc3F)nncc2c1-c1ccccc1,199 °C
20,CC(=O)N(C)c1cc(-c2ccnc3c(C(=O)c4cccs4)cnn23)ccc1Cl,191 to 193 °C
21,O=C1c2cc(F)ccc2-n2cnc(C(=O)n3ccnc3)c2[C@@H]2CCCN12,206 to 207 °C
22,CCCCCCCc1noc(-c2ncn3c2CN(C)C(=O)c2c(Cl)cccc2-3)n1,108 to 110 °C
23,CC(=O)c1ccc(Br)c(S(=O)(=O)Cl)c1,107 °C
24,CCCC(CCC)(CCC)NC(=O)NC,120 °C
25,NC(=O)c1ccc(NC(=O)C2CCCN(Cc3ccccc3)C2)cc1 (stereo not drawn),211 to 212 °C
26,COc1cccc(CC(N)C(=O)O)c1OCCc1ccccc1 (racemic),180 to 182 °C

row,SMILES,melting point
1,CCn1c(=O)n(CC)c2cc3c(N4CCN(C(=O)Nc5ccc(Oc6ccccc6)cc5)CC4)nncc3cc21,125 to 128 °C
2,O=C(OCc1ccccc1)c1ccc(N2CCOCC2)cc1,85 to 86 °C
3,CC1(c2ccc(I)cc2)CO1 (stereo not drawn),44 to 45 °C
4,COc1ccc(C=CC(=O)Nc2cc(Cl)ccc2C(=O)O)cc1OC,255 to 257 °C
5,CCN1CCC(Cc2ccc(Cl)nc2)C1=C[N+](=O)[O-] (stereo not drawn),129 to 131 °C
6,COc1ccc(F)cc1C(=O)NC1Cc2cc(S(=O)(=O)NC(=S)NC(C)C)c(OC)cc2OC1(C)C (stereo not drawn),156 to 157 °C
7,Cc1[nH]c(-c2ccccc2)nc1-c1cc(C(C)(C)C)c(O)c(C(C)(C)C)c1,298 to 300 °C
8,Cc1ccc(Br)cc1-n1nc(-c2ccc(O)cc2O)c2ccc(O)cc21,88 to 91 °C
9,CCCCCCCCCC(=O)Nc1cc(NC(=O)CCCCCCCCC)cc(C(=O)O)c1,208 to 209 °C
10,Cn1c(S(=O)(=O)c2ccc(=O)[nH]n2)cc2ccccc21,233 to 235 °C
11,NC(=O)Cc1ccc(Oc2ccccc2)cc1,161 to 163 °C
12,CN(C)CCN(C1CCS(=O)(=O)C1)S(=O)(=O)c1ccc(Nc2nccc(Nc3ccc(F)cc3)n2)cc1 (stereo not drawn),162 to 165 °C
13,O=C(O)C1CC(Cl)=C(c2ccccc2)CC1C(=O)O (stereo not drawn),82 to 90 °C
14,CCCCc1ccc(-n2c(-c3ccc(SC)cc3)nc(SC)c(C#N)c2=O)cc1,138 to 141 °C
15,COC(=O)/C=C/Oc1ccc(Oc2ccc(F)cc2F)c(NS(C)(=O)=O)c1,98.5 to 98.9 °C
16,CC(C)(C)OC(=O)N1CCN2C(=O)OC(c3ccccc3)C2C1 (stereo not drawn),133 to 135 °C
17,COc1ccc(CN2C(=O)C3CCCC3=Nc3ccccc32)cc1 (stereo not drawn),128 to 131 °C
18,Cc1cc(N=C2NCCN2)cc(NS(C)(=O)=O)c1C,254 to 255 °C
19,CN(C)S(=O)(=O)c1cc(-c2csc(=Nc3ccccc3)n2C2CC2)ccc1Cl,156 to 159 °C
20,COC1CN(C(=O)c2cnn(C)c2C(=O)Nc2ccn3nc(-c4cccc(F)c4)nc3c2)C1,255 to 257 °C
21,COc1ccc(C(=O)Nc2ccc(F)cc2)cc1NCc1cccs1,179 to 181 °C
22,CCCCNC(=O)C(C)CC(O)C1C[C@H](C)CCCCCCNc2cc(cc(OC)n2)C(=O)N1 (stereo partly drawn),178 to 182 °C
23,Cc1ccc2c(c1)CCC1=C2CCC(=O)N1,204 to 205 °C
24,COC(=O)Cn1c(C(=O)NC(N)=S)cc2cc(OC)ccc21,202 to 206 °C
25,N#Cc1ccccc1C=Cc1ccccc1C#N,187 to 189 °C
26,O=[N+]([O-])N=C1NCCN1Cc1ccc(F)nc1,121 to 124 °C

row,SMILES,melting point
1,CCS(=O)(=O)c1cc2c(O)cccc2o1,145 to 147 °C
2,N#Cc1ccc2c(c1)NC(=O)C(O)C2 (stereo not drawn),> 250 °C
3,OC1CCN(c2ncc(-c3cccc(Cl)c3)cn2)CC1,160 to 162 °C
4,CC1=NNC(c2ccc3c(c2)Nc2nccnc2S3)=NN1,233 to 235 °C
5,CCCCc1cn(CCCC)c(=O)n1Cc1ccc(-c2ccccc2-c2nnn[nH]2)nc1,170 to 171 °C
6,C=CCc1c(C(C)C)nc(C(C)C)c(CO)c1-c1ccc(F)cc1,69 to 71 °C
7,NCCNC(=O)c1ccc(F)cc1,57 to 60 °C
8,Cc1c[nH]c2c(Sc3nc4cc(Cl)ccc4[nH]3)ccc(N)c12,229 to 230 °C
9,COC(C)CN(C)CC=CC(=O)Nc1cc2c(Nc3ccc(F)c(Cl)c3)ncnc2cc1OCC1CC1 (stereo not drawn),123 to 125 °C
10,Cc1ncc([N+](=O)[O-])n1CCOS(C)(=O)=O,152 to 153 °C
11,O=C1NCCN1S(=O)(=O)c1ccc(F)cc1,183 to 185 °C
12,CCOC(=O)c1sc(Oc2ccc(C(C)=O)c(OC)c2)c2c1CCc1cnn(C)c1-2,132 to 133 °C
13,O=C(O)c1cc(Cl)cc2c1NC(c1ccccc1)CC2 (stereo not drawn),199 to 200 °C
14,Cc1ccc(N)c(C(N)=O)c1,171 to 174 °C
15,CCC(C)CCOc1c(-c2ccc(S(C)(=O)=O)cc2)cnn(-c2ccc(F)c(F)c2)c1=O (stereo not drawn),100 to 102 °C
16,O=[N+]([O-])c1ccc(Oc2ccc3cc(Oc4ccc([N+](=O)[O-])c(O)c4)ccc3c2)cc1O,244 to 246 °C
17,CCOC(=O)c1cc(CC)sc1Nc1ccc(C(F)F)cc1[N+](=O)[O-],88 to 90 °C
18,Oc1ccc(Nc2nncc3ccccc23)cc1,245 to 247 °C
19,CNC(=O)C(=NOC)c1ccccn1,132 to 133 °C
20,Nc1ncc(CCO)s1,125 to 127 °C
21,O=C1C(=NO)SCCN1Cc1ccccc1,225 to 227 °C
22,CC(=O)NC[C@H]1CN(c2ccc(N3CCC(O)(CN4CCNCC4)CC3)c(F)c2)C(=O)O1,175 to 177 °C
23,COc1ccnc(CS(=O)c2nc3cc(C(F)(F)F)ccc3[nH]2)c1C (stereo not drawn),225 to 227 °C
24,Brc1cccc(OCc2ccc3ccccc3c2)n1,67 to 69 °C
25,COc1cccc(-c2cc3ccc(C#N)cc3o2)c1,148 to 150 °C
